As usually defined, the inhibition is the relative decrease from the control value, in per cent.

Inhibition and kinact/KI data for three molecules are collected here from patent US20220281866A1, “5,8-DISUBSTITUTED-[1,2,4]TRIAZOLO[1,5-A]PYRIDINYL AND 5,8-DISUBSTITUTED-IMIDAZO[1,2-A]PYRIDINE DERIVATIVES USEFUL AS INHIBITORS OF ENTEROPEPTIDASE” (Janssen Pharmaceutica NV, priority 2019, published 2022).

The target in test [1] is T1, Recombinant full-length human EP (Enteropeptidase) (Homo sapiens, UniProt P98073).
T1 construct: Recombinant full-length human EP (PeproTech, Cat #450-48C); purchased PeproTech 450-48C
In words: In vitro inhibition potencies against Enteropeptidase (EP), fluorescent peptide GDDDDK-naphthylamine substrate. It counts as biochemical. Particulars: 300 μM substrate, 1.25 nM EP; for inhibition at 0.1 µM: compound 0.1 μM; for inhibition at 1 µM: compound 1 μM; for inhibition at 10 µM: compound 10 μM; for kinact/KI: 12-point dose-dependence, time-dependent inhibition, duplicate dilutions, read-out: kinact/KI^App.

For a further test, the target named is T2, Bovine trypsin (Bos taurus, UniProt P00760).
T2 construct: purchased Sigma-Aldrich T1426
T2 sequence (P00760 24-246): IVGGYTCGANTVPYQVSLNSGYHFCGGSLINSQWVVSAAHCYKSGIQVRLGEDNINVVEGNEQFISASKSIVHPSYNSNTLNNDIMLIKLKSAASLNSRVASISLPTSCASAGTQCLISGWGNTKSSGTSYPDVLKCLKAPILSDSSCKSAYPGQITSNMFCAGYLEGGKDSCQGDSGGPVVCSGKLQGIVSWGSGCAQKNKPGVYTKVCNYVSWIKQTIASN
In words: Biochemical Assay of Trypsin (T), H-D-CHA-AR-AMC substrate. To be noted: 15 μM substrate, 0.025 nM Trypsin; for inhibition at 0.1 µM: compound 0.1 μM; for inhibition at 1 µM: compound 1 μM; for inhibition at 10 µM: compound 10 μM; for kinact/KI: 12-point dose-dependence, time-dependent inhibition, duplicate dilutions, read-out: Kinact/KI^App.

T1 sequence (P98073 whole entry): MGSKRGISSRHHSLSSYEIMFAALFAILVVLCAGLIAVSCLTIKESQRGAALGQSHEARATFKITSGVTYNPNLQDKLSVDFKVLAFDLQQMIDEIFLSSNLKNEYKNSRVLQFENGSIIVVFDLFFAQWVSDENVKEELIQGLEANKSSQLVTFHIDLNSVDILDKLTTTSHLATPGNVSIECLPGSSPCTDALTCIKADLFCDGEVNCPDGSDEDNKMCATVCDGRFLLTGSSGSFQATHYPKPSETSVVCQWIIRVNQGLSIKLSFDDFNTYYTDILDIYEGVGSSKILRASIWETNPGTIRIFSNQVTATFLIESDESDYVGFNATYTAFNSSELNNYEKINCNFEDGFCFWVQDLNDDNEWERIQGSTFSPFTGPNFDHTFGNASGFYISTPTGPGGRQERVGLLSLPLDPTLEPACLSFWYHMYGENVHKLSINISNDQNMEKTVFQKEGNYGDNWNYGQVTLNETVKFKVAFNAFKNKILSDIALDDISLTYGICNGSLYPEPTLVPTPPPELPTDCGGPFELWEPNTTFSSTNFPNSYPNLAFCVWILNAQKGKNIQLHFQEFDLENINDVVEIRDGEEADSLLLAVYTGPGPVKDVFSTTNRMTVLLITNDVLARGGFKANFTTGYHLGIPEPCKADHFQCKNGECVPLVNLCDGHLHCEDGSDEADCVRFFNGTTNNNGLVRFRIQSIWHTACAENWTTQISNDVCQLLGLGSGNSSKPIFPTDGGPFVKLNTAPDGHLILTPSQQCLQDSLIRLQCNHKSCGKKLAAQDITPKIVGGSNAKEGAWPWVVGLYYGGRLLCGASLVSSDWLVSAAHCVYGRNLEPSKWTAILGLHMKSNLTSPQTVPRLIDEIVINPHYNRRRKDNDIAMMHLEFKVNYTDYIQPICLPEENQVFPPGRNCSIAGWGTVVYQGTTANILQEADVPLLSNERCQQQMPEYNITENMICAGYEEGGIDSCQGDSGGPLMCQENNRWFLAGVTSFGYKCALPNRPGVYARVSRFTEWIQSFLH

Regarding `C/C(=N\O)Nc1ccc(C(=O)Oc2ccc(CC(=O)O)n3ncnc23)cc1` [Compound 40, (E)-2-(8-(4-(N′-hydroxyacetimidamido)benzoyloxy)-[1,2,4]triazolo[1,5-a]pyridin-5-yl)acetic acid], in test [1], the inhibition at 0.1 µM is -10.7%, the inhibition at 1 µM is -10.1% and the inhibition at 10 µM was -10.8%. Moreover, on Bovine trypsin, the inhibition at 0.1 µM was -8%, the inhibition at 1 µM is -0.4% and the inhibition at 10 µM worked out at 10.1%.

In the case of `C#CCOCCOCC#Cc1cc(NC(=N)N)ccc1C(=O)Oc1ccc(CC(=O)O)n2ncnc12` [Compound 42, 2-(8-((4-guanidino-2-(3-(2-(prop-2-yn-1-yloxy)ethoxy)prop-1-yn-1-yl)benzoyl)oxy)-[1,2,4]triazolo[1,5-a]pyridin-5-yl)acetic acid], in test [1], the kinact/KI amounted to 52800 M⁻¹ s⁻¹, the inhibition at 0.1 µM amounted to 62.3%, the inhibition at 1 µM amounted to 98.5% and the inhibition at 10 µM was found to be 99.8%. Further, on Bovine trypsin, the kinact/KI is 59400 M⁻¹ s⁻¹, the inhibition at 0.1 µM was 52.9%, the inhibition at 1 µM was determined as 99.6% and the inhibition at 10 µM is 100%.

As to `C#CCOCC#Cc1cc(NC(=N)N)ccc1C(=O)Oc1ccc(CC(=O)O)n2ncnc12` [Compound 43, 2-(8-((4-Guanidino-2-(3-(prop-2-yn-1-yloxy)prop-1-yn-1-yl)benzoyl)oxy)-[1,2,4]triazolo[1,5-a]pyridin-5-yl)acetic acid], in test [1], the kinact/KI was found to be 12300 M⁻¹ s⁻¹, the inhibition at 0.1 µM is 56.5%, the inhibition at 1 µM was 99.9% and the inhibition at 10 µM came to 99.9%. For the same molecule, at Bovine trypsin, the kinact/KI came out at 40100 M⁻¹ s⁻¹, the inhibition at 0.1 µM is 76.1%, the inhibition at 1 µM was 99.5% and the inhibition at 10 µM was found to be 100%.
